In patent US11492405B2, “Reducing systemic regulatory t cell levels or activity for treatment of disease and injury of the CNS” (Yeda Research and Development Co. Ltd, priority 2014, dated 2022):
Entries after “also recorded” stand apart in the source; their conditions may differ.

Experiments:
Format in all cases: in vivo, mouse
5XFAD AD-Tg mice [1] = test: Aβ plaque quantitation (immunohistochemistry) in 5XFAD AD-Tg mice; settings: AD-Tg/Foxp3-DTR+ mice, 3 weeks after last DTx injection
Experimental: Tissue processing and immunohistochemistry were performed on paraffin embedded sectioned mouse (6 μm thick) and human (10 μm thick) brains. For human ICAM-1 staining, primary mouse anti-ICAM (1:20 Abcam; ab2213) antibody was used. Slides were incubated for 10 min with 3% H2O2, and a secondary biotin-conjugated anti-mouse antibody was used, followed by biotin/avidin amplification with Vectastain ABC kit (Vector Laboratories). Subsequently, 3,3′-diaminobenzidine (DAB substrate) (Zytomed kit) was applied; slides were dehydrated and mounted with xylene-based mounting solution. For tissue stainings, mice were transcardially perfused with PBS prior to tissue excision and fixation. CP tissues were isolated under a dissecting microscope (Stemi DV4; Zeiss) from the lateral, third, and fourth ventricles of the brain. For whole mount CP staining, tissues were fixated with 2.5% paraformaldehyde (PFA) for 1 hour at 4° C., and subsequently transferred to PBS containing 0.05% sodium azide. Prior to staining, the dissected tissues were washed with PBS and blocked (20% horse serum, 0.3% Triton X-100, and PBS) for 1 h at room temperature. Whole mount staining with primary antibodies (in PBS containing 2% horse serum and 0.3% Triton X-100), or secondary antibodies, was performed for 1 h at room temperature. Each step was followed by three washes in PBS. The tissues were applied to slides, mounted with Immu-mount (9990402, from Thermo Scientific), and sealed with cover-slips. For staining of sectioned brains, two different tissue preparation protocols (paraffin embedded or microtomed free-floating sections) were applied, as previously described (Baruch et al, 2013; Kunis et al, 2013). […] Microscopic analysis, was performed using a fluorescence microscope (E800; Nikon) or laser-scanning confocal microscope (Carl Zeiss, Inc.). The fluorescence microscope was equipped with a digital camera (DXM 1200F; Nikon), and with either a 20×NA 0.50 or 40×NA 0.75 objective lens (Plan Fluor; Nikon). […] For quantification of staining intensity, total cell and background staining was measured using ImageJ software (NIH), and intensity of specific staining was calculated, as previously described (Burgess et al, 2010). […]
From each brain, 6 μm coronal slices were collected, and eight sections per mouse, from four different pre-determined depths throughout the region of interest (dentate gyrus or cerebral cortex) were immunostained. […]

5XFAD AD-Tg mice [2] = test: GFAP immunostaining (hippocampal astrogliosis) in 5XFAD AD-Tg mice; settings: AD-Tg/Foxp3-DTR+ mice, 3 weeks after last DTx injection
Experimental: Tissue processing and immunohistochemistry were performed on paraffin embedded sectioned mouse (6 μm thick) and human (10 μm thick) brains. For human ICAM-1 staining, primary mouse anti-ICAM (1:20 Abcam; ab2213) antibody was used. Slides were incubated for 10 min with 3% H2O2, and a secondary biotin-conjugated anti-mouse antibody was used, followed by biotin/avidin amplification with Vectastain ABC kit (Vector Laboratories). Subsequently, 3,3′-diaminobenzidine (DAB substrate) (Zytomed kit) was applied; slides were dehydrated and mounted with xylene-based mounting solution. For tissue stainings, mice were transcardially perfused with PBS prior to tissue excision and fixation. CP tissues were isolated under a dissecting microscope (Stemi DV4; Zeiss) from the lateral, third, and fourth ventricles of the brain. […] Microscopic analysis, was performed using a fluorescence microscope (E800; Nikon) or laser-scanning confocal microscope (Carl Zeiss, Inc.). The fluorescence microscope was equipped with a digital camera (DXM 1200F; Nikon), and with either a 20×NA 0.50 or 40×NA 0.75 objective lens (Plan Fluor; Nikon). […] For quantification of staining intensity, total cell and background staining was measured using ImageJ software (NIH), and intensity of specific staining was calculated, as previously described (Burgess et al, 2010). […]

5XFAD AD-Tg mice [3] = test: Flow cytometry of CP IFN-γ-expressing immune cells in 5XFAD AD-Tg mice; settings: weekly-GA, end of 1st week (two GA injections)
Experimental: Mice were transcardially perfused with PBS, and tissues were treated as previously described (Baruch et al, 2013). Brains were dissected and the different brain regions were removed under a dissecting microscope (Stemi DV4; Zeiss) in PBS, and tissues were dissociated using the gentleMACS™ dissociator (Miltenyi Biotec). Choroid plexus tissues were isolated from the lateral, third and fourth ventricles of the brain, incubated at 37° C. for 45 min in PBS (with Ca^2+/Mg^2+) containing 400 U/ml collagenase type IV (Worthington Biochemical Corporation), and then manually homogenized by pipetting. Spleens were mashed with the plunger of a syringe and treated with ACK (ammonium chloride potassium) lysing buffer to remove erythrocytes. In all cases, samples were stained according to the manufacturers' protocols. All samples were filtered through a 70 μm nylon mesh, and blocked with anti-Fc CD16/32 (1:100; BD Biosciences). For intracellular staining of IFN-γ, the cells were incubated with […] (10 ng/ml; Sigma-Aldrich) and ionomycin (250 ng/ml; Sigma-Aldrich) for 6 h, and Brefeldin-A (10 μg/ml; Sigma-Aldrich) was added for the last 4 h. Intracellular labeling of cytokines was done with BD Cytofix/Cytoperm™ Plus fixation/permeabilization kit (cat. no. 555028). […] Cells were analyzed on an LSRII cytometer (BD Biosciences) using FlowJo software. […]

Substance	cerebral Aβ plaque burden in hippocampal dentate gyrus and cerebral cortex (5th layer) (5XFAD AD-Tg mice [1])	hippocampal gliosis (GFAP immunostaining) (5XFAD AD-Tg mice [2])	IFN-γ-producing cells at the CP (5XFAD AD-Tg mice [3])
Diphtheria toxin [DTx]	reduced	reduced astrogliosis; also recorded: reduction in hippocampal gliosis	
Glatiramer acetate [GA]			increase
